Read-outs that look alike come from different tables or passages of the source.
Target: p38α (Homo sapiens, UniProt Q16539)
Assay: p38α/MK2 cascade assay
Format: biochemical
Settings: read-out: p38a/MK2 Cascade 40 min Pre-Incuabtion (% Inhibition): IC50
Summary of the method: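 In a cascade format, p38α was preincubated 40 min with inhibitor (1000–0.05 nM) before adding 1 nM nonactive MK2 (54-400), 5 μM MgATP and 0.5 μM FITC-Hsp27 peptide. Reaction ran 60 min in HEPES pH 7.5 with MgCl2, DTT, 2% DMSO, then EDTA-quenched. Peptide phosphorylation was measured by Caliper mobility shift to give IC50.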

[1] = Table 1, inhibitors preincubated with p38α for 40 minutes, phosphorylation of Hsp27 peptide by MK-2, Caliper LabChip 3000
[2] = Table 2, same p38α/MK2 cascade assay, 40 minutes preincubation

Chain of p38α (Q16539 whole entry): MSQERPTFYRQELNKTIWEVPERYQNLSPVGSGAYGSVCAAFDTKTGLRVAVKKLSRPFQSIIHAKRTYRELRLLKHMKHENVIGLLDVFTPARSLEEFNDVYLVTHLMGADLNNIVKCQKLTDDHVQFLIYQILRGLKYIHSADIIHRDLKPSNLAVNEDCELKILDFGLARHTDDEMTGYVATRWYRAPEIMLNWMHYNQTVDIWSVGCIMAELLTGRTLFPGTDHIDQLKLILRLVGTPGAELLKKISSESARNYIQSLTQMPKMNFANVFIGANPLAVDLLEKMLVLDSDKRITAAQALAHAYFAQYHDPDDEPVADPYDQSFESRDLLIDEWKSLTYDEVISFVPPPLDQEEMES

Row | IC50 [1] [nM] | IC50 [2] [nM] | Structure (SMILES)
1 | 11.1 |  | COc1cccc(-n2nc(C(C)(C)C)cc2NC(=O)NCc2ccccc2COc2cc(C)n(Cc3ccc(OC)cc3OC)c(=O)c2C)c1 [Example 123, 1-[3-tert-butyl-1-(3-methoxyphenyl)-1H-pyrazol-5-yl]-3-[2-({[1-(2,4-dimethoxybenzyl)-3,6-dimethyl-2-oxo-1,2-dihydropyridin-4-yl]oxy}methyl)benzyl]urea]
2 | 12.5 |  | COc1cccc(-n2nc(C(C)(C)C)cc2NC(=O)NCc2ccccc2COc2cc(C)n(Cc3ccccc3)c(=O)c2C)c1 [Example 128-B, 1-(2-{[(1-benzyl-3,6-dimethyl-2-oxo-1,2-dihydropyridin-4-yl)oxy]methyl}benzyl)-3-[3-tert-butyl-1-(3-methoxyphenyl)-1H-pyrazol-5-yl]urea]
3 | 12.1 |  | Cc1ccc(-n2nc(C(C)(C)C)cc2NC(=O)NCc2ccccc2COc2cc(C)n(Cc3ccccc3)c(=O)c2C)cc1 [Example 128-C, 1-(2-{[(1-benzyl-3,6-dimethyl-2-oxo-1,2-dihydropyridin-4-yl)oxy]methyl}benzyl)-3-[3-tert-butyl-1-(4-methylphenyl)-1H-pyrazol-5-yl]urea]
4 | 3.31 |  | COC(=O)c1ccc(C)c(-n2c(C)cc(OCc3ccc(F)cc3CNC(=O)Nc3cc(C(C)(C)C)nn3-c3ccc(C)cc3)c(Cl)c2=O)c1 [Example 181, Methyl 3-{4-[(2-{[({[3-tert-butyl-1-(4-methylphenyl)-1H-pyrazol-5-yl]amino}carbonyl)amino]methyl}-4-fluorobenzyl)oxy]-3-chloro-6-methyl-2-oxopyridin-1(2H)-yl}-4-methylbenzoate]
5 | 3.99 |  | COC(=O)c1ccc(C)c(-n2c(C)cc(OCc3ccc(F)cc3CNC(=O)Nc3cc(C(C)(C)C)nn3-c3cccc(Cl)c3)c(Cl)c2=O)c1 [Example 182, Methyl 3-{4-[(2-{[({[3-tert-butyl-1-(3-chlorophenyl)-1H-pyrazol-5-yl]amino}carbonyl)amino]methyl}-4-fluorobenzyl)oxy]-3-chloro-6-methyl-2-oxopyridin-1(2H)-yl}-4-methylbenzoate]
6 | 2.26 |  | COC(=O)c1ccc(C)c(-n2c(C)cc(OCc3ccc(F)cc3CNC(=O)Nc3cc(C(C)(C)C)nn3-c3cccc(OC)c3)c(Cl)c2=O)c1 [Example 183, Methyl 3-{4-[(2-{[({[3-tert-butyl-1-(3-methoxyphenyl)-1H-pyrazol-5-yl]amino}carbonyl)amino]methyl}-4-fluorobenzyl)oxy]-3-chloro-6-methyl-2-oxopyridin-1(2H)-yl}-4-methylbenzoate]
7 | 3.61 |  | COC(=O)c1ccc(C)c(-n2c(C)cc(OCc3ccc(F)cc3CNC(=O)Nc3cc(C(C)(C)C)nn3-c3ccc(C)cc3)c(Br)c2=O)c1 [Example 185, methyl 3-{3-bromo-4-[(2-{[({[3-tert-butyl-1-(4-methylphenyl)-1H-pyrazol-5-yl]amino}carbonyl)amino]methyl}-4-fluorobenzyl)oxy]-6-methyl-2-oxopyridin-1(2H)-yl}-4-methylbenzoate]
8 | 4.62 |  | Cc1ccc(-n2nc(C(C)(C)C)cc2NC(=O)NCc2cc(F)ccc2COc2cc(C)n(-c3cc(C(=O)O)ccc3C)c(=O)c2Cl)cc1 [Example 186, 3-{4-[(2-{[({[3-tert-butyl-1-(4-methylphenyl)-1H-pyrazol-5-yl]amino}carbonyl)amino]methyl}-4-fluorobenzyl)oxy]-3-chloro-6-methyl-2-oxopyridin-1(2H)-yl}-4-methylbenzoic acid]
9 | 2.55 |  | COc1cccc(-n2nc(C(C)(C)C)cc2NC(=O)NCc2cc(F)ccc2COc2cc(C)n(-c3cc(C(=O)O)ccc3C)c(=O)c2Cl)c1 [Example 189, 3-{4-[(2-{[({[3-tert-butyl-1-(3-methoxyphenyl)-1H-pyrazol-5-yl]amino}carbonyl)amino]methyl}-4-fluorobenzyl)oxy]-3-chloro-6-methyl-2-oxopyridin-1(2H)-yl}-4-methylbenzoic acid]
10 | 2.37 |  | Cc1ccc(-n2nc(C(C)(C)C)cc2NC(=O)NCc2cc(F)ccc2COc2cc(C)n(-c3cc(C(=O)NCCO)ccc3C)c(=O)c2Cl)cc1 [Example 190, 3-{4-[(2-{[({[3-tert-butyl-1-(4-methylphenyl)-1H-pyrazol-5-yl]amino}carbonyl)amino]methyl}-4-fluorobenzyl)oxy]-3-chloro-6-methyl-2-oxopyridin-1(2H)-yl}-N-(2-hydroxyethyl)-4-methylbenzamide]
11 | 2.21 |  | Cc1ccc(-n2nc(C(C)(C)C)cc2NC(=O)NCc2cc(F)ccc2COc2cc(C)n(-c3cc(C(=O)NCCO)ccc3C)c(=O)c2Br)cc1 [Example 193, 3-{3-bromo-4-[(2-{[({[3-tert-butyl-1-(4-methylphenyl)-1H-pyrazol-5-yl]amino}carbonyl)amino]methyl}-4-fluorobenzyl)oxy]-6-methyl-2-oxopyridin-1(2H)-yl}-N-(2-hydroxyethyl)-4-methylbenzamide]
12 | 2.45 |  | CNC(=O)c1ccc(C)c(-n2c(C)cc(OCc3ccc(F)cc3CNC(=O)Nc3cc(C(C)(C)C)nn3-c3cccc(Cl)c3)c(Cl)c2=O)c1 [Example 194, 3-{4-[(2-{[({[3-tert-butyl-1-(3-chlorophenyl)-1H-pyrazol-5-yl]amino}carbonyl)amino]methyl}-4-fluorobenzyl)oxy]-3-chloro-6-methyl-2-oxopyridin-1(2H)-yl}-N,4-dimethylbenzamide]
13 | 3.93 |  | Cc1ccc(C(=O)NCCO)cc1-n1c(C)cc(OCc2ccc(F)cc2CNC(=O)Nc2cc(C(C)(C)C)nn2-c2cccc(Cl)c2)c(Cl)c1=O [Example 195, 3-{4-[(2-{[({[3-tert-butyl-1-(3-chlorophenyl)-1H-pyrazol-5-yl]amino}carbonyl)amino]methyl}-4-fluorobenzyl)oxy]-3-chloro-6-methyl-2-oxopyridin-1(2H)-yl}-N-(2-hydroxyethyl)-4-methylbenzamide]
14 |  | 4.5 | COc1cccc(Cn2c(C)cc(OCc3ccc(F)cc3CNC(=O)Nc3cc(C(C)(C)C)nn3-c3cccc(OC)c3)c(Cl)c2=O)c1 [Example 201, 1-[3-tert-butyl-1-(3-methoxyphenyl)-1H-pyrazol-5-yl]-3-[2-({[3-chloro-1-(3-methoxybenzyl)-6-methyl-2-oxo-1,2-dihydropyridin-4-yl]oxy}methyl)-5-fluoro-benzyl]urea]
15 |  | 3.1 | COc1ccc(Cn2c(C)cc(OCc3ccc(F)cc3CNC(=O)Nc3cc(C(C)(C)C)nn3-c3ccc(Cl)c(O)c3)c(Cl)c2=O)cc1 [Example 202, 1-[3-tert-butyl-1-(4-chloro-3-hydroxyphenyl)-1H-pyrazol-5-yl]-3-[2-({[3-chloro-1-(4-methoxy-benzyl)-6-methyl-2-oxo-1,2-dihydropyridin-4-yl]oxy}methyl)-5-fluorobenzyl]urea]
16 |  | 2.8 | COC(=O)c1ccc(C)c(-n2c(C)cc(OCc3ccc(F)cc3CNC(=O)Nc3cc(C(C)(C)C)nn3-c3cccc(O)c3)c(Cl)c2=O)c1 [Example 203, methyl 3-{4-[(2-{[({[3-tert-butyl-1-(3-hydroxy-phenyl)-1H-pyrazol-5-yl]amino}-carbonyl)amino]-methyl}-4-fluorobenzyl)oxy]-3-chloro-6-methyl-2-oxopyridin-1(2H)-yl}-4-methylbenzoate]
17 |  | 26.3 | COC(=O)c1ccc(C)c(-n2c(SC)nc(OCc3ccccc3CNC(=O)Nc3cc(C(C)(C)C)nn3-c3ccc(C)cc3)cc2=O)c1 [Example 204, methyl 3-{4-[(2-{[({[3-tert-butyl-1-(4-methylphenyl)-1H-pyrazol-5-yl]amino}carbonyl)-amino]-methyl}-benzyl)oxy]-2-(methylthio)-6-oxopyrimidin-1(6H)-yl}-4-methylbenzoate]
18 |  | 2.5 | COC(=O)c1ccc(C)c(-n2c(C)cc(OCc3ccccc3CNC(=O)Nc3cc(C(C)(C)C)nn3-c3ccc(C)cc3)c(Cl)c2=O)c1 [Example 205, methyl 3-{4-[(2-{[({[3-tert-butyl-1-(4-methylphenyl)-1H-pyrazol-5-yl]amino}carbonyl)-amino]methyl}benzyl)oxy]-3-chloro-6-methyl-2-oxopyridin-1(2H)-yl}-4-methylbenzoate]
19 |  | 3.71 | CNC(=O)c1ccc(C)c(-n2c(C)cc(OCc3ccc(F)cc3CNC(=O)Nc3cc(C(C)(C)C)nn3-c3ccc(C)cc3)c(Cl)c2=O)c1 [Example 206, 3-{4-[(2-{[({[3-tert-butyl-1-(4-methylphenyl)-1H-pyrazol-5-yl]amino}carbonyl)amino]methyl}-4-fluorobenzyl)oxy]-3-chloro-6-methyl-2-oxopyridin-1(2H)-yl}-N,4-dimethylbenzamide]
20 |  | 4.54 | Cc1ccc(-n2nc(C(C)(C)C)cc2NC(=O)NCc2cc(F)ccc2COc2cc(C)n(-c3cc(C(=O)O)ccc3C)c(=O)c2Br)cc1 [Example 207, 3-{3-bromo-4-[(2-{[({[3-tert-butyl-1-(4-methylphenyl)-1H-pyrazol-5-yl]amino}carbonyl)-amino]methyl}-4-fluorobenzyl)oxy]-6-methyl-2-oxopyridin-1(2H)-yl}-4-methylbenzoic acid]
21 |  | 1.79 | CNC(=O)c1ccc(C)c(-n2c(C)cc(OCc3ccc(F)cc3CNC(=O)Nc3cc(C(C)(C)C)nn3-c3cccc(OC)c3)c(Cl)c2=O)c1 [Example 208, 3-{4-[(2-{[({[3-tert-butyl-1-(3-methoxyphenyl)-1H-pyrazol-5-yl]amino}carbonyl)amino]methyl}-4-fluorobenzyl)oxy]-3-chloro-6-methyl-2-oxopyridin-1(2H)-yl}-N,4-dimethyl-benzamide]
22 |  | 3.8 | COC(=O)c1ccc(C)c(-n2c(C)cc(OCc3ccccc3CNC(=O)Nc3cc(C(C)(C)C)nn3-c3cccc(OCCO)c3)c(Cl)c2=O)c1 [Example 209, methyl 3-[4-{[2-({[({3-tert-butyl-1-[3-(2-hydroxyethoxy)-phenyl]-1H-pyrazol-5-yl}amino)carbonyl]-amino}methyl)-benzyl]oxy}-3-chloro-6-methyl-2-oxopyridin-1(2H)-yl]-4-methylbenzoate]
